The values below come from patent US8299077B2 (Roche Palo Alto LLC, priority 2009, dated 2012).

As usually defined, the IC50 is the concentration that inhibits the measured activity by half. Low readings indicate greater potency, high ones weaker potency.

The assay relates to B cell receptor-mediated activation of B cells in human blood (CD69 expression). Description: Inhibition of B cell activation in whole blood measured by CD69 expression. Type of assay: cell-based. The note with it: anti-IgM stimulation, 20 h, 50% decrease of CD69-positive cells that are also CD20-positive. Here is the method: Inhibition of B Cell Activation in Whole Blood Measured by CD69 Expression
A procedure to test the ability of Btk inhibitors to suppress B cell receptor-mediated activation of B cells in human blood is as follows:
Human whole blood (HWB) is obtained from healthy volunteers, with the following restrictions: 24 hr drug-free, non-smokers. Blood is collected by venipuncture into Vacutainer tubes anticoagulated with sodium heparin. Test compounds are diluted to ten times the desired starting drug concentration in PBS (20×), followed by three-fold serial dilutions in 10% DMSO in PBS to produce a nine point dose-response curve. 5.5 μl of each compound dilution is added in duplicate to a 2 ml 96-well V bottom plate (Analytical Sales and Services, #59623-23); 5.5 μl of 10% DMSO in PBS is added to control and no-stimulus wells. HWB (100 μl) is added to each well, and after mixing the plates are incubated at 37 C, 5% CO2, 100% humidity for 30 minutes. Goat F(ab′)2 anti-human IgM (Southern Biotech, #2022-14) (10 μl of a 500 μg/ml solution, 50 μg/ml final concentration) is added to each well (except the no-stimulus wells) with mixing and the plates are incubated for an additional 20 hours.
At the end of the 20 hour incubation, samples are incubated with florescent-probe-labeled anti-bodies (15 μl PE Mouse anti-Human CD20, BD Pharmingen, #555623, and/or 20 ul APC Mouse anti-Human CD69, BD Pharmingen #555533) for 30 minutes, at 37 C, 5% CO2, 100% humidity. Included are induced control, unstained and single stains for compensation adjustments and initial voltage settings. Samples are then lysed with 1 ml of 1× Pharmingen Lyse Buffer (BD Pharmingen #555899), and plates are centrifuged at 1800 rpm for 5 minutes. Supernatants are removed via suction and the remaining pellets are lysed again with another 1 ml of 1× Pharmingen Lyse Buffer, and plates are spun down as before. Supernatants are aspirated and remaining pellets are washed in FACs buffer (PBS+1% FBS). After a final spin, the supernantants are removed and pellets are resuspended in 180 μl of FACs buffer. Samples are transferred to a 96 well plate suitable to be run on the HTS 96 well system on the BD LSR II flow cytometer.
Using appropriate excitation and emission wavelengths for the fluorophores used, data are acquired and percent positive cell values are obtained using Cell Quest Software. Results are initially analyzed by FACS analysis software (Flow Jo). […] The IC50 values are calculated using XLfit software version 3, equation 201.
The molecule `CCc1ccc(Nc2cc(-c3cccc(-n4ncc5cc(C(C)(C)C)cc(F)c5c4=O)c3CO)cn(C)c2=O)nc1` [Example I-33, 6-tert-Butyl-2-{3-[5-(5-ethyl-pyridin-2-ylamino)-1-methyl-6-oxo-1,6-dihydro-pyridin-3-yl]-2-hydroxymethyl-phenyl}-8-fluoro-2H-phthalazin-1-one] showed an IC50 of 218 nM.
`Cn1cc(-c2cccc(-n3ncc4cc(C(C)(C)C)cc(F)c4c3=O)c2CO)cc(Nc2ccc(C(=O)O)cn2)c1=O` [Example I-34, 6-{5-[3-(6-tert-Butyl-8-fluoro-1-oxo-1H-phthalazin-2-yl)-2-hydroxymethyl-phenyl]-1-methyl-2-oxo-1,2-dihydro-pyridin-3-ylamino}-nicotinic acid] displayed an IC50 of 258 nM. The IC50 values of the last two molecules are within 1.5-fold of each other.
With `Cn1cc(-c2cccc(-n3ncc4cc(C(C)(C)C)cc(F)c4c3=O)c2CO)cc(Nc2ccc(C(C)(C)N)cn2)c1=O` [Example I-35, 2-(3-{5-[5-(1-Amino-1-methyl-ethyl)-pyridin-2-ylamino]-1-methyl-6-oxo-1,6-dihydro-pyridin-3-yl}-2-hydroxymethyl-phenyl)-6-tert-butyl-8-fluoro-2H-phthalazin-1-one], 28 nM corresponded to half-maximal inhibition (IC50).
For `CC(O)c1ccc(Nc2cc(-c3cccc(-n4ncc5cc(C(C)(C)C)cc(F)c5c4=O)c3CO)cn(C)c2=O)nc1` (centres unmarked) [Example I-36, 6-tert-Butyl-8-fluoro-2-(3-{5-[5-(1-hydroxy-ethyl)-pyridin-2-ylamino]-1-methyl-6-oxo-1,6-dihydro-pyridin-3-yl}-2-hydroxymethyl-phenyl)-2H-phthalazin-1-one], half-maximal inhibition (IC50) required 59 nM.
For the molecule `CCn1ccc(Nc2cc(-c3cccc(-n4ncc5cc(C(C)(C)C)cc(F)c5c4=O)c3CO)cn(C)c2=O)nc1=O` [Example I-37, 6-tert-Butyl-2-{3-[5-(1-ethyl-2-oxo-1,2-dihydro-pyrimidin-4-ylamino)-1-methyl-6-oxo-1,6-dihydro-pyridin-3-yl]-2-hydroxymethyl-phenyl}-8-fluoro-2H-phthalazin-1-one], the IC50 was 219 nM.
Take `CC(C)n1ccc(Nc2cc(-c3cccc(-n4ncc5cc(C(C)(C)C)cc(F)c5c4=O)c3CO)cn(C)c2=O)nc1=O` [Example I-38, 6-tert-Butyl-8-fluoro-2-{2-hydroxymethyl-3-[5-(1-isopropyl-2-oxo-1,2-dihydro-pyrimidin-4-ylamino)-1-methyl-6-oxo-1,6-dihydro-pyridin-3-yl]-phenyl}-2H-phthalazin-1-one]: the midpoint of inhibition, the IC50, lay at 67 nM.
The result for `COCCNCc1ccc(Nc2cc(-c3cccc(-n4ncc5cc(C(C)(C)C)cc(F)c5c4=O)c3CO)cn(C)c2=O)nc1` [Example I-39, 6-tert-Butyl-8-fluoro-2-[2-hydroxymethyl-3-(5-{5-[(2-methoxy-ethylamino)-methyl]-pyridin-2-ylamino}-1-methyl-6-oxo-1,6-dihydro-pyridin-3-yl)-phenyl]-2H-phthalazin-1-one] reads 8 nM.
`Cn1cc(-c2cccc(-n3ncc4cc(C(C)(C)C)cc(F)c4c3=O)c2CO)cc(NC2=NCCO2)c1=O` [Example I-40, 6-tert-Butyl-2-{3-[5-(4,5-dihydro-oxazol-2-ylamino)-1-methyl-6-oxo-1,6-dihydro-pyridin-3-yl]-2-hydroxymethyl-phenyl}-8-fluoro-2H-phthalazin-1-one] came in with an IC50 of 824 nM.
The result for `Cn1cc(-c2cccc(-n3ncc4cc(C(C)(C)C)cc(F)c4c3=O)c2CO)cc(Nc2ccc3c(n2)CCNC3)c1=O` [Example I-41, 6-tert-Butyl-8-fluoro-2-{2-hydroxymethyl-3-[1-methyl-6-oxo-5-(5,6,7,8-tetrahydro-[1,6]naphthyridin-2-ylamino)-1,6-dihydro-pyridin-3-yl]-phenyl}-2H-phthalazin-1-one] reads 33 nM; that for `CCNCc1ccc(Nc2cc(-c3cccc(-n4ncc5cc(C(C)(C)C)cc(F)c5c4=O)c3CO)cn(C)c2=O)nc1` [Example I-42, 6-tert-Butyl-2-{3-[5-(5-ethylaminomethyl-pyridin-2-ylamino)-1-methyl-6-oxo-1,6-dihydro-pyridin-3-yl]-2-hydroxymethyl-phenyl}-8-fluoro-2H-phthalazin-1-one], 6 nM; that for `CC(C)NCc1ccc(Nc2cc(-c3cccc(-n4ncc5cc(C(C)(C)C)cc(F)c5c4=O)c3CO)cn(C)c2=O)nc1` [Example I-43, 6-tert-Butyl-8-fluoro-2-(2-hydroxymethyl-3-{5-[5-(isopropylamino-methyl)-pyridin-2-ylamino]-1-methyl-6-oxo-1,6-dihydro-pyridin-3-yl}-phenyl)-2H-phthalazin-1-one], 15 nM.
As for `Cn1cc(-c2cccc(-n3ncc4cc(C(C)(C)C)cc(F)c4c3=O)c2CO)cc(NC2=NCCCO2)c1=O` [Example I-44, 6-tert-Butyl-2-{3-[5-(5,6-dihydro-4H-[1,3]oxazin-2-ylamino)-1-methyl-6-oxo-1,6-dihydro-pyridin-3-yl]-2-hydroxymethyl-phenyl}-8-fluoro-2H-phthalazin-1-one], the figure is 1730 nM.
Regarding `Cn1cc(-c2cccc(-n3ncc4cc(C(C)(C)C)cc(F)c4c3=O)c2CO)cc(Nc2ccc(N3CC[N+](C)([O-])CC3)cn2)c1=O` [Example I-45, 6-tert-Butyl-8-fluoro-2-(2-hydroxymethyl-3-{1-methyl-5-[5-(4-methyl-4-oxy-piperazin-1-yl)-pyridin-2-ylamino]-6-oxo-1,6-dihydro-pyridin-3-yl}-phenyl)-2H-phthalazin-1-one], the IC50 was determined as 2260 nM. The IC50 values of the last two molecules are within 1.5-fold of each other.
On to `CC1CCOC(Nc2cc(-c3cccc(-n4ncc5cc(C(C)(C)C)cc(F)c5c4=O)c3CO)cn(C)c2=O)=N1` (centres unmarked) [Example I-46, 6-tert-Butyl-8-fluoro-2-{2-hydroxymethyl-3-[1-methyl-5-(4-methyl-5,6-dihydro-4H-[1,3]oxazin-2-ylamino)-6-oxo-1,6-dihydro-pyridin-3-yl]-phenyl}-2H-phthalazin-1-one], for which it took 4220 nM to reach half-maximal inhibition (IC50).
In the case of `CCNC(C)(C)c1ccc(Nc2cc(-c3cccc(-n4ncc5cc(C(C)(C)C)cc(F)c5c4=O)c3CO)cn(C)c2=O)nc1` [Example I-47, 6-tert-Butyl-2-(3-{5-[5-(1-ethylamino-1-methyl-ethyl)-pyridin-2-ylamino]-1-methyl-6-oxo-1,6-dihydro-pyridin-3-yl}-2-hydroxymethyl-phenyl)-8-fluoro-2H-phthalazin-1-one], the IC50 is 6 nM.
Consider `CC(=O)NC(C)(C)c1ccc(Nc2cc(-c3cccc(-n4ncc5cc(C(C)(C)C)cc(F)c5c4=O)c3CO)cn(C)c2=O)nc1` [Example I-48, N-[1-(6-{5-[3-(6-tert-Butyl-8-fluoro-1-oxo-1H-phthalazin-2-yl)-2-hydroxymethyl-phenyl]-1-methyl-2-oxo-1,2-dihydro-pyridin-3-ylamino}-pyridin-3-yl)-1-methyl-ethyl]-acetamide], for which the IC50 amounted to 47 nM.
As for `CC1CCN=C(Nc2cc(-c3cccc(-n4ncc5cc(C(C)(C)C)cc(F)c5c4=O)c3CO)cn(C)c2=O)O1` (centres unmarked) [Example I-49, 6-tert-Butyl-8-fluoro-2-{2-hydroxymethyl-3-[1-methyl-5-(6-methyl-5,6-dihydro-4H-[1,3]oxazin-2-ylamino)-6-oxo-1,6-dihydro-pyridin-3-yl]-phenyl}-2H-phthalazin-1-one], the figure is 3130 nM.
Consider `Cn1cc(-c2cccc(-n3ncc4cc(C(C)(C)C)cc(F)c4c3=O)c2CO)cc(Nc2ccn(C(C)(C)C)c(=O)n2)c1=O` [Example I-50, 6-tert-Butyl-2-{3-[5-(1-tert-butyl-2-oxo-1,2-dihydro-pyrimidin-4-ylamino)-1-methyl-6-oxo-1,6-dihydro-pyridin-3-yl]-2-hydroxymethyl-phenyl}-8-fluoro-2H-phthalazin-1-one], for which it took 44 nM to reach half-maximal inhibition (IC50).
As for `Cn1cc(-c2cccc(-n3ccc4cc(C5CC5)cc(F)c4c3=O)c2CO)cc(Nc2ccc(C(=O)N3CCOCC3)cn2)c1=O` [Example I-51, 6-Cyclopropyl-8-fluoro-2-(2-hydroxymethyl-3-{1-methyl-5-[5-(morpholine-4-carbonyl)-pyridin-2-ylamino]-6-oxo-1,6-dihydro-pyridin-3-yl}-phenyl)-2H-isoquinolin-1-one], the figure is 23 nM; as for `Cn1cc(-c2cccc(-n3ccc4cc(C5CC5)cc(F)c4c3=O)c2CO)cc(Nc2ccc(N3CCNCC3)cn2)c1=O` [Example I-52, 6-Cyclopropyl-8-fluoro-2-{2-hydroxymethyl-3-[1-methyl-6-oxo-5-(5-piperazin-1-yl-pyridin-2-ylamino)-1,6-dihydro-pyridin-3-yl]-phenyl}-2H-isoquinolin-1-one], 57 nM.
